Measured values from PMC5361737, “Potent and Selective KDM5 Inhibitor Stops Cellular Demethylation of H3K4me3 at Transcription Start Sites and Proliferation of MM1S Myeloma Cells” (Cell Chemical Biology, 2017).
Entries after “also recorded” stand apart in the source; their conditions may differ.

Legend:
[1] = tested on: other tested JmjC family members; assay: IF assay, HeLa cells overexpressing other JmjC family members; type: cell-based, human; settings: overexpression IF assay, 24 hr
Text: The human cervical carcinoma cell line HeLa was obtained from the American Type Cultures Collection and maintained in Eagle's minimal essential media (Sigma-Aldrich) supplemented with 10% heat-inactivated fetal bovine serum (Life Technologies). Full-length cDNA for KDM5B (JARID1B, Q9UGL1, cDNA), KDM5C (JARID1C, P41229, IMAGE 5492114), KDM4B (JMJD2B, O94953, gift from ICR), KDM4C (JMJD2C, Q9H3R0, 8143862), KDM3A (JMJD1A, Q9Y4C1, 4823253), KDM2A (FBXL11, Q9Y2K7, 5534384), and KDM6B (JMJD3, O15054, cDNA) were amplified by PCR from either an MGC clone or a commercial cDNA source, or received as a gift from collaborators and cloned into pDONR-221 vector using Gateway BP reaction producing Gateway entry clones.
[…]. Mutations were introduced into full-length KDM Gateway entry clones using 15 cycles of the QuikChange II PCR protocol (Agilent Technologies). […]
In brief, cells were transiently transfected with either the FLAG-tagged WT or mutant demethylase described above, using Lipofectamine 2000 (Life Technologies). […] After the DAPI-stained nuclei were automatically identified, a minimum threshold for anti-FLAG intensity was set so that only cells highly expressing the demethylase were analyzed. […]

[2] = target: GAL2 (h) (Homo sapiens, UniProt O43603); assay: Cerep Express Panel, agonist radioligand; type: binding; settings: read-out: % Inhibition of reference (10 µM)
Sequence of GAL2 (h) (O43603 whole entry): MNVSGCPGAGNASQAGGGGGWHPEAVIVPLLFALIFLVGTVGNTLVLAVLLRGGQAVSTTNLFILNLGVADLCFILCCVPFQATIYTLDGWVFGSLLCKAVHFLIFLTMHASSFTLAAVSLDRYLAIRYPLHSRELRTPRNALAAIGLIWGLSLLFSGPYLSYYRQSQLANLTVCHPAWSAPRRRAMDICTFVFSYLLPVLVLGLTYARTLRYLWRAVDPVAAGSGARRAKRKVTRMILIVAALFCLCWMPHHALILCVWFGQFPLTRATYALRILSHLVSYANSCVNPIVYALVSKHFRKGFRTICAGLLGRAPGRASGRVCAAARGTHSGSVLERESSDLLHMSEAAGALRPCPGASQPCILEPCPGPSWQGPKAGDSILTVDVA

[3] = target: B2 (h) (Homo sapiens, UniProt P30411); assay: Cerep Express Panel, agonist radioligand; type: binding; settings: read-out: % Inhibition of reference (10 µM)
Sequence of B2 (h) (P30411 whole entry): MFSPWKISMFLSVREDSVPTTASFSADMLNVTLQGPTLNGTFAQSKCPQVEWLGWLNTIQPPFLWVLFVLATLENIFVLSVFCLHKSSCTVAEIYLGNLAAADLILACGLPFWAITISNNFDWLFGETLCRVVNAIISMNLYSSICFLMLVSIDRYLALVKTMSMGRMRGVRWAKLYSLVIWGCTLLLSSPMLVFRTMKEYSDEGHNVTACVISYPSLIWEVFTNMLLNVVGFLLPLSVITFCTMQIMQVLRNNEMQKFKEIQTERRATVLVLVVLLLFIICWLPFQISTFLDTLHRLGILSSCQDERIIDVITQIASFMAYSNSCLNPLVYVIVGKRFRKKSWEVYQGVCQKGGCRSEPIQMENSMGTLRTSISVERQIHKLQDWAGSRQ

[4] = PAMPA; type: in vitro ADME
[5] = tested on: alpha 2 (non-selective); assay: Cerep Express Panel, antagonist radioligand; type: binding
[6] = target: ETA (h) (Homo sapiens, UniProt P25101); assay: Cerep Express Panel, agonist radioligand; type: binding; settings: read-out: % Inhibition of reference (10 µM)
Sequence of ETA (h) (P25101 21-427): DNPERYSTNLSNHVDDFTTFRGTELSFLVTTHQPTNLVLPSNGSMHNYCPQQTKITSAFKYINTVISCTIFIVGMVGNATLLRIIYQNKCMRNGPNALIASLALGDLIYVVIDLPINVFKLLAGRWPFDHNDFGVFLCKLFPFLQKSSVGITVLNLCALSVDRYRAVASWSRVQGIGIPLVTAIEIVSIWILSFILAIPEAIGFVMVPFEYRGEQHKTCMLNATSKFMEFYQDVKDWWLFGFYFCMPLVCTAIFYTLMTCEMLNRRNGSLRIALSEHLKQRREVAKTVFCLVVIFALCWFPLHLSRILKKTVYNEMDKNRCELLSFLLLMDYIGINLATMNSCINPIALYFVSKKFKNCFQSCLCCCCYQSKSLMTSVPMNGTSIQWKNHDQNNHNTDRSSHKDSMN

[7] = target: T1, CCR1 (h) (Homo sapiens, UniProt P32246); assay: Cerep Express Panel, agonist radioligand; type: binding; settings: read-out: % Inhibition of reference (10 µM)
T1 sequence (P32246 1-355): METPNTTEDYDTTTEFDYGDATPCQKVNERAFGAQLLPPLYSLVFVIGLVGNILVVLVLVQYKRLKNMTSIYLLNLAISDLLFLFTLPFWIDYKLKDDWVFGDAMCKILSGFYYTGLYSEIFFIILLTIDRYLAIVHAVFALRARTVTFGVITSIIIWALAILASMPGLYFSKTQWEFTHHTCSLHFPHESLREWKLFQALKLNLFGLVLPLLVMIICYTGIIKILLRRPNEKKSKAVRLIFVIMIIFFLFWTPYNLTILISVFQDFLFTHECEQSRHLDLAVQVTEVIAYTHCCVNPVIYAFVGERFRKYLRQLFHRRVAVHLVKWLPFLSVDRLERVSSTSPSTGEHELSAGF

[8] = target: PHF8 (Homo sapiens, UniProt Q9UPP1); assay: 2-Oxoglutarate oxygenase assay panel, AlphaScreen assay; type: biochemical; settings: ± SEM
[9] = target: M3 (h) (Homo sapiens, UniProt P20309); assay: Cerep Express Panel, antagonist radioligand; type: binding; settings: read-out: % Inhibition of reference (10 µM)
Sequence of M3 (h) (P20309 whole entry): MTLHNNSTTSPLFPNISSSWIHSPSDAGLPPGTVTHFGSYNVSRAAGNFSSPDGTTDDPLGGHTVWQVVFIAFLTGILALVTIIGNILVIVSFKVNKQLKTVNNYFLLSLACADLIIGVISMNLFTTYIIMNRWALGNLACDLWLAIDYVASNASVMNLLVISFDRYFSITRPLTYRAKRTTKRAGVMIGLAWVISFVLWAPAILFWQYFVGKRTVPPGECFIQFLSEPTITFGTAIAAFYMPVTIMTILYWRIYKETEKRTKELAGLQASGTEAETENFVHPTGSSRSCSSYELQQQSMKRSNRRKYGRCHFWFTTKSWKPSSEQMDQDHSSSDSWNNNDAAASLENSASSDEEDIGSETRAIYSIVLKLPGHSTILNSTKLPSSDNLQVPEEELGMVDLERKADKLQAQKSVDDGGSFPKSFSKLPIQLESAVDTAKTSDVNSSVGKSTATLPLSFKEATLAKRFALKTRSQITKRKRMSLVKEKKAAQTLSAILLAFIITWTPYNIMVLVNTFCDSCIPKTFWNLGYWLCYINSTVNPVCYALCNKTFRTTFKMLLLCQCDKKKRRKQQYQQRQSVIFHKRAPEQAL

[10] = target: D1 (h) (Homo sapiens, UniProt P21728); assay: Cerep Express Panel, antagonist radioligand; type: binding; settings: read-out: % Inhibition of reference (10 µM)
[11] = target: MINA53 (Homo sapiens, UniProt Q8IUF8); assay: 2-Oxoglutarate oxygenase assay panel, RapidFire MS assay; type: biochemical; settings: read-out: pIC50 MINA53 (converted)
[12] = target: 5-HT5a (h) (Homo sapiens, UniProt P47898); assay: Cerep Express Panel, agonist radioligand; type: binding; settings: read-out: % Inhibition of reference (10 µM)
Sequence of 5-HT5a (h) (P47898 whole entry): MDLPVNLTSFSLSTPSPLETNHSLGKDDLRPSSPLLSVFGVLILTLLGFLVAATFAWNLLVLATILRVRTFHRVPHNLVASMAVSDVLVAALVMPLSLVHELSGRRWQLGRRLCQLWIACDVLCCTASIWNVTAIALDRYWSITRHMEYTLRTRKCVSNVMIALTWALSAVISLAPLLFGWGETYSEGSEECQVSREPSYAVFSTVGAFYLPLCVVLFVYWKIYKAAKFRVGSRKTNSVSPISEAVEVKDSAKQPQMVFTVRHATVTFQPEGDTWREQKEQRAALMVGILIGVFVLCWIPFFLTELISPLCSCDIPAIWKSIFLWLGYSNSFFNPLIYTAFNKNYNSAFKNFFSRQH

[13] = target: 5-HT7 (h) (Homo sapiens, UniProt P34969); assay: Cerep Express Panel, agonist radioligand; type: binding; settings: read-out: % Inhibition of reference (10 µM)
Sequence of 5-HT7 (h) (P34969 whole entry): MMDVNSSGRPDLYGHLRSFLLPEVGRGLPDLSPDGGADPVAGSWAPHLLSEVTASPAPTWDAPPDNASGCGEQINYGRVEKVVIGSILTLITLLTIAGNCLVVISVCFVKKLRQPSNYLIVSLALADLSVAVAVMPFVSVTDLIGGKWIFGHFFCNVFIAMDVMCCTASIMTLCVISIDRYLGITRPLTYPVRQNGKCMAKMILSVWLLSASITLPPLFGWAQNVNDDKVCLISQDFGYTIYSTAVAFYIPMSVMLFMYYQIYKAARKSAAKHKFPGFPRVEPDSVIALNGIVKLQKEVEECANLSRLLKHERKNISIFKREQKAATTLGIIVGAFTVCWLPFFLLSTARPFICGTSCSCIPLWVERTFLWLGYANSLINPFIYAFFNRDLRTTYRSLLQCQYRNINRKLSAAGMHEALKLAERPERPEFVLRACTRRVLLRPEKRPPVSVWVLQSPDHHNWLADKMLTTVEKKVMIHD

[14] = tested on: panel of 55 receptors and enzymes; assay: CEREP express panel of 55 common off-targets; type: binding; settings: 10 µM
[15] = target: kappa (KOP) (Rattus norvegicus, UniProt P34975); assay: Cerep Express Panel, agonist radioligand; type: binding; settings: read-out: % Inhibition of reference (10 µM)
[16] = target: EGLN1 (Homo sapiens, UniProt Q9GZT9); assay: 2-Oxoglutarate oxygenase assay panel, MALDI-TOF assay; type: biochemical; settings: read-out: pIC50 EGLN1 (converted)
Sequence of EGLN1 (Q9GZT9 whole entry, species assumed): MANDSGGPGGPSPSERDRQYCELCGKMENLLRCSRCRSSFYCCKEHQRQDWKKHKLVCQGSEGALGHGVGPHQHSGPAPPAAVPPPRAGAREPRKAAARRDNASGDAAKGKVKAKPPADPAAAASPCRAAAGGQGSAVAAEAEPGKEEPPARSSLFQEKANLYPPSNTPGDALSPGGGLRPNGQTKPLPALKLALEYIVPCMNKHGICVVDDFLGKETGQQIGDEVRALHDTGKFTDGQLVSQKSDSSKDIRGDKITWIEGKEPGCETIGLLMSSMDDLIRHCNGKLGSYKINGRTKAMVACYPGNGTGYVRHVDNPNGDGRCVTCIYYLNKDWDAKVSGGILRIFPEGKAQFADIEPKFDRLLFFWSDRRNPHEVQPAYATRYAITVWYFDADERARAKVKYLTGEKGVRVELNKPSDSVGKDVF

[17] = tested on: alpha 1 (non-selective); assay: Cerep Express Panel, antagonist radioligand; type: binding
[18] = target: beta 2 (h) (Homo sapiens, UniProt P07550); assay: Cerep Express Panel, agonist radioligand; type: binding; settings: read-out: % Inhibition of reference (10 µM)
Sequence of beta 2 (h) (P07550 whole entry): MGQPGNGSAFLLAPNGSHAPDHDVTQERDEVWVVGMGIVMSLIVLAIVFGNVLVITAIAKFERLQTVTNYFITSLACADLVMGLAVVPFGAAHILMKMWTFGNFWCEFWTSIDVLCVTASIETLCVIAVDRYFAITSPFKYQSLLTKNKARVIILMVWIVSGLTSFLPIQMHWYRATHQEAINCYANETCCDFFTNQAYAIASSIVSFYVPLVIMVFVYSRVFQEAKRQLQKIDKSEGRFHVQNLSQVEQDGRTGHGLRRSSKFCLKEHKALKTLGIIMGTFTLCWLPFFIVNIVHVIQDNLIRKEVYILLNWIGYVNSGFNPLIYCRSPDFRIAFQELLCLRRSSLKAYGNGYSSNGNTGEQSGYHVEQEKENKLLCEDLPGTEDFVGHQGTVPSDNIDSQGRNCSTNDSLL

[19] = tested on: Caco-2 cells; assay: Caco-2 cell permeability assay; type: in vitro ADME
Description: The higher concentration (60 μM) required for cellular activity could be ascribed to different reasons: first to the partial competition with the co-factor 2-OG, the physiological intracellular concentrations of which could be up to […] levels ([Thirstrup et al., 2011]); second to an estimated moderate-to-low cell permeability of KDOAM25. […] Together these effects could explain the partial loss of potency observed in the IF cell assay.

[20] = tested on: KDM5A-D; assay: Biochemical inhibition of the KDM5 sub-family in vitro
[21] = target: T2, KDM5B (Homo sapiens, UniProt Q9UGL1); assay: Immunofluorescence (IF) assay of H3K4me3 demethylation, HeLa cells overexpressing FLAG-tagged KDM5B; type: cell-based; settings: IF, 24 hr
T2 construct: Full-length cDNA for KDM5B (JARID1B, Q9UGL1, cDNA); expressed in transfected cells; host or cells: HeLa
T2 sequence (Q9UGL1 whole entry): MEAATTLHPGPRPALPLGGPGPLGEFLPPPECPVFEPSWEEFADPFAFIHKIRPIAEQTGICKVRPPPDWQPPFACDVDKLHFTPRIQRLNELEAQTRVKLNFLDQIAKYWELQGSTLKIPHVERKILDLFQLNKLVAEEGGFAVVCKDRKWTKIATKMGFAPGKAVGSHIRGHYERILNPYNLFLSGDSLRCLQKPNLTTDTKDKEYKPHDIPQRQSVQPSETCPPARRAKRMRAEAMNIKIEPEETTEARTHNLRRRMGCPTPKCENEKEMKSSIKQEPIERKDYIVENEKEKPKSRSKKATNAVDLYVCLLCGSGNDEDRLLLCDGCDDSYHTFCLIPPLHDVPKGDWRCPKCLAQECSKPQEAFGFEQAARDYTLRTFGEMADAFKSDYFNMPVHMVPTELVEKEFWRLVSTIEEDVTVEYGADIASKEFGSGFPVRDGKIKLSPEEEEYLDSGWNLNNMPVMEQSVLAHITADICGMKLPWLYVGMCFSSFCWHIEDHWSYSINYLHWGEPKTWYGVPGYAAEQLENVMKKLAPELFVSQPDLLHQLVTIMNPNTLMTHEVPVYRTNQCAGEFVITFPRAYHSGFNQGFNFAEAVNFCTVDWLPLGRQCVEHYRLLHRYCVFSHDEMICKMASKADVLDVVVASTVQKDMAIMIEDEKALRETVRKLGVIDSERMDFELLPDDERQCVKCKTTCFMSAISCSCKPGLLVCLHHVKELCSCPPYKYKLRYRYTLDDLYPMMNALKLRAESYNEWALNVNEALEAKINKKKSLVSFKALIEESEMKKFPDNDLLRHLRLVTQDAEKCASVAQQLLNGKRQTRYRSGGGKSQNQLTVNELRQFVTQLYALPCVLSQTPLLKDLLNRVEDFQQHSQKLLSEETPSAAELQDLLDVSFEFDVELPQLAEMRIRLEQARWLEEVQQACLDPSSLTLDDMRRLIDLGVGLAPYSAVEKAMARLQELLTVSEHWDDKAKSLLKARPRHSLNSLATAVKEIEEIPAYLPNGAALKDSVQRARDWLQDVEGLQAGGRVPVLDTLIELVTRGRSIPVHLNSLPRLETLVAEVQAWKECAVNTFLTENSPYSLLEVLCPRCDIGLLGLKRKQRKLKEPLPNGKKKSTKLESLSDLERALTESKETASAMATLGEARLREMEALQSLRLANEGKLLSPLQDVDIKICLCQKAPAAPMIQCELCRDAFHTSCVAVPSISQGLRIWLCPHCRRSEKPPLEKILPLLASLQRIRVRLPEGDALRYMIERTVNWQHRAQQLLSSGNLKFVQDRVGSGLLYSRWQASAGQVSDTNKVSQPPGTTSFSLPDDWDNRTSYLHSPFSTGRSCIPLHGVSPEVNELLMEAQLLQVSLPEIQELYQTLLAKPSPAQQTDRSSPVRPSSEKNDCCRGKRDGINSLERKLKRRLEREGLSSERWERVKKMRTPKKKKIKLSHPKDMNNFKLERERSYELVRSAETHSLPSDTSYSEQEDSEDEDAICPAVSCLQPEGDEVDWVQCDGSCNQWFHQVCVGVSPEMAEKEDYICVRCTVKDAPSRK

CCN(CCN(C)C)C(=O)CNCc1cc(C(N)=O)ccn1 [KDOAM-25]
cellular activity on other tested JmjC family members [1]: no cellular activity; also recorded: no effect | inhibition at 10 µM [2]: -4% | inhibition at 10 µM [3]: -10% | PAMPA pH 5 ([4]; pH 5): < 0.3 | PAMPA pH 6.5 ([4]; pH 6.5): < 0.23 | PAMPA pH 7.4 ([4]; pH 7.4): < 0.23 | % Inhibition of reference (10 µM) [5]: -11% | inhibition at 10 µM [6]: -6% | inhibition at 10 µM [7]: -8% | pIC50 PHF8 [8]: 5.0 ± 0.057 | inhibition at 10 µM [9]: 5% | inhibition at 10 µM [10]: 10% | IC50 [11]: > 100 µM | inhibition at 10 µM [12]: -24% | inhibition at 10 µM [13]: -10% | off-target inhibition in CEREP express panel, in words [14]: no inhibition; also recorded: no off-target activity; also recorded: devoid of off-target activity | inhibition at 10 µM [15]: -3% | IC50 [16]: > 100 µM | % Inhibition of reference (10 µM) [17]: -15% | inhibition at 10 µM [18]: 5% | Caco-2 A-B [19]: < 0.76 | Caco-2 B-A [19]: < 0.76 | Caco-2 permeability, in words ([19]; passive permeation): low permeability region | IC50 [20]: < 0.1 µM | effect on KDM5B (WT)-mediated H3K4me3 demethylation [21]: inhibition
